Reference: ChEMBL document CHEMBL1124300, “Deletion sequences of salmon calcitonin that retain the essential biological and conformational features of the intact molecule” (1988)
Residues, ends and D or L forms follow the SMILES beside them.

Tested on: Rattus norvegicus
Assay: In vivo hypocalcemic activity measuring the hormone-induced decrease of blood calcium levels in rats
Assay type: functional

First: CC(C)C[C@H](NC(=O)[C@H](CCCCN)NC(=O)CNC(=O)[C@H](CC(C)C)NC(=O)[C@@H](NC(=O)[C@@H]1CSSC[C@H](N)C(=O)N[C@@H](CO)C(=O)N[C@@H](CC(N)=O)C(=O)N[C@@H](CC(C)C)C(=O)N[C@@H](CO)C(=O)N[C@@H]([C@@H](C)O)C(=O)N1)C(C)C)C(=O)N[C@@H](CO)C(=O)N[C@@H](CCC(N)=O)C(=O)N[C@@H](CCC(=O)O)C(=O)N[C@@H](CC(C)C)C(=O)N[C@@H](Cc1c[nH]cn1)C(=O)N[C@@H](CCCCN)C(=O)N[C@@H](Cc1ccc(O)cc1)C(=O)N1CCC[C@H]1C(=O)N[C@@H](CCCN=C(N)N)C(=O)N[C@H](C(=O)N[C@@H](CC(N)=O)C(=O)N[C@H](C(=O)NCC(=O)N[C@@H](CO)C(=O)NCC(=O)N[C@H](C(=O)N1CCC[C@H]1C(N)=O)[C@@H](C)O)[C@@H](C)O)[C@@H](C)O (HELM PEPTIDE1{C.S.N.L.S.T.C.V.L.G.K.L.S.Q.E.L.H.K.Y.P.R.T.N.T.G.S.G.T.P.[am]}$PEPTIDE1,PEPTIDE1,1:R3-7:R3$$$V2.0)
Second: CC(C)C[C@H](NC(=O)[C@H](CCCCN)NC(=O)CNC(=O)[C@H](CC(C)C)NC(=O)[C@@H](NC(=O)[C@@H]1CSSC[C@H](N)C(=O)N[C@@H](CO)C(=O)N[C@@H](CC(N)=O)C(=O)N[C@@H](CC(C)C)C(=O)N[C@@H](CO)C(=O)N[C@@H]([C@@H](C)O)C(=O)N1)C(C)C)C(=O)N[C@@H](CO)C(=O)N[C@@H](CCC(N)=O)C(=O)N[C@@H](CCC(=O)O)C(=O)N[C@@H](CC(C)C)C(=O)N[C@@H](Cc1c[nH]cn1)C(=O)N[C@@H](CCCCN)C(=O)N[C@H](C(=O)N[C@@H](Cc1ccc(O)cc1)C(=O)N1CCC[C@H]1C(=O)N[C@@H](CCCN=C(N)N)C(=O)N[C@H](C(=O)N[C@@H](CC(N)=O)C(=O)N[C@H](C(=O)NCC(=O)N[C@@H](CO)C(=O)NCC(=O)N[C@H](C(=O)N1CCC[C@H]1C(N)=O)[C@@H](C)O)[C@@H](C)O)[C@@H](C)O)[C@@H](C)O (HELM PEPTIDE1{C.S.N.L.S.T.C.V.L.G.K.L.S.Q.E.L.H.K.T.Y.P.R.T.N.T.G.S.G.T.P.[am]}$PEPTIDE1,PEPTIDE1,1:R3-7:R3$$$V2.0)
The Hypocalcemic activity of the first is higher: 7100 IU mg-1 for the first, 6400 IU mg-1 for the second.

First: CC(C)C[C@H](NC(=O)[C@H](CCCCN)NC(=O)CNC(=O)[C@H](CC(C)C)NC(=O)[C@@H](NC(=O)[C@@H]1CSSC[C@H](N)C(=O)N[C@@H](CO)C(=O)N[C@@H](CC(N)=O)C(=O)N[C@@H](CC(C)C)C(=O)N[C@@H](CO)C(=O)N[C@@H]([C@@H](C)O)C(=O)N1)C(C)C)C(=O)N[C@@H](CO)C(=O)N[C@@H](CCC(N)=O)C(=O)N[C@@H](CCC(=O)O)C(=O)N[C@@H](CC(C)C)C(=O)N[C@@H](Cc1c[nH]cn1)C(=O)N[C@@H](CCCCN)C(=O)N1CCC[C@H]1C(=O)N[C@@H](CCCN=C(N)N)C(=O)N[C@H](C(=O)N[C@@H](CC(N)=O)C(=O)N[C@H](C(=O)NCC(=O)N[C@@H](CO)C(=O)NCC(=O)N[C@H](C(=O)N1CCC[C@H]1C(N)=O)[C@@H](C)O)[C@@H](C)O)[C@@H](C)O (HELM PEPTIDE1{C.S.N.L.S.T.C.V.L.G.K.L.S.Q.E.L.H.K.P.R.T.N.T.G.S.G.T.P.[am]}$PEPTIDE1,PEPTIDE1,1:R3-7:R3$$$V2.0)
Second: CC(C)C[C@H](NC(=O)[C@H](CCCCN)NC(=O)CNC(=O)[C@H](CC(C)C)NC(=O)[C@@H](NC(=O)[C@@H]1CSSC[C@H](N)C(=O)N[C@@H](CO)C(=O)N[C@@H](CC(N)=O)C(=O)N[C@@H](CC(C)C)C(=O)N[C@@H](CO)C(=O)N[C@@H]([C@@H](C)O)C(=O)N1)C(C)C)C(=O)N[C@@H](CO)C(=O)N[C@@H](CCC(N)=O)C(=O)N[C@@H](CCC(=O)O)C(=O)N[C@@H](CC(C)C)C(=O)N[C@@H](Cc1c[nH]cn1)C(=O)N[C@@H](CCCCN)C(=O)N[C@@H](CC(C)C)C(=O)N[C@@H](CCC(N)=O)C(=O)N[C@H](C(=O)N1CCC[C@H]1C(=O)N[C@@H](CCCN=C(N)N)C(=O)N[C@H](C(=O)N[C@@H](CC(N)=O)C(=O)N[C@H](C(=O)NCC(=O)N[C@@H](CO)C(=O)NCC(=O)N[C@H](C(=O)N1CCC[C@H]1C(N)=O)[C@@H](C)O)[C@@H](C)O)[C@@H](C)O)[C@@H](C)O (HELM PEPTIDE1{C.S.N.L.S.T.C.V.L.G.K.L.S.Q.E.L.H.K.L.Q.T.P.R.T.N.T.G.S.G.T.P.[am]}$PEPTIDE1,PEPTIDE1,1:R3-7:R3$$$V2.0)
The Hypocalcemic activity of the first is higher: 6300 IU mg-1 for the first, 5200 IU mg-1 for the second.

Compared with CC(C)C[C@H](NC(=O)[C@H](CCCCN)NC(=O)CNC(=O)[C@H](CC(C)C)NC(=O)[C@@H](NC(=O)[C@@H]1CSSC[C@H](N)C(=O)N[C@@H](CO)C(=O)N[C@@H](CC(N)=O)C(=O)N[C@@H](CC(C)C)C(=O)N[C@@H](CO)C(=O)N[C@@H]([C@@H](C)O)C(=O)N1)C(C)C)C(=O)N[C@@H](CO)C(=O)N[C@@H](CCC(N)=O)C(=O)N[C@@H](CCC(=O)O)C(=O)N[C@@H](CC(C)C)C(=O)N[C@@H](Cc1c[nH]cn1)C(=O)N[C@@H](CCCCN)C(=O)N[C@@H](CCC(N)=O)C(=O)N[C@H](C(=O)N[C@@H](Cc1ccc(O)cc1)C(=O)N1CCC[C@H]1C(=O)N[C@@H](CCCN=C(N)N)C(=O)N[C@H](C(=O)N[C@@H](CC(N)=O)C(=O)N[C@H](C(=O)NCC(=O)N[C@@H](CO)C(=O)NCC(=O)N[C@H](C(=O)N1CCC[C@H]1C(N)=O)[C@@H](C)O)[C@@H](C)O)[C@@H](C)O)[C@@H](C)O (HELM PEPTIDE1{C.S.N.L.S.T.C.V.L.G.K.L.S.Q.E.L.H.K.Q.T.Y.P.R.T.N.T.G.S.G.T.P.[am]}$PEPTIDE1,PEPTIDE1,1:R3-7:R3$$$V2.0), CC(C)C[C@H](NC(=O)[C@H](CCCCN)NC(=O)CNC(=O)[C@H](CC(C)C)NC(=O)[C@@H](NC(=O)[C@@H]1CSSC[C@H](N)C(=O)N[C@@H](CO)C(=O)N[C@@H](CC(N)=O)C(=O)N[C@@H](CC(C)C)C(=O)N[C@@H](CO)C(=O)N[C@@H]([C@@H](C)O)C(=O)N1)C(C)C)C(=O)N[C@@H](CO)C(=O)N[C@@H](CCC(N)=O)C(=O)N[C@@H](CCC(=O)O)C(=O)N[C@@H](CC(C)C)C(=O)N[C@@H](Cc1c[nH]cn1)C(=O)N[C@@H](CCCCN)C(=O)N[C@@H](CC(C)C)C(=O)N[C@@H](CCC(N)=O)C(=O)N[C@@H](Cc1ccc(O)cc1)C(=O)N1CCC[C@H]1C(=O)N[C@@H](CCCN=C(N)N)C(=O)N[C@H](C(=O)N[C@@H](CC(N)=O)C(=O)N[C@H](C(=O)NCC(=O)N[C@@H](CO)C(=O)NCC(=O)N[C@H](C(=O)N1CCC[C@H]1C(N)=O)[C@@H](C)O)[C@@H](C)O)[C@@H](C)O (HELM PEPTIDE1{C.S.N.L.S.T.C.V.L.G.K.L.S.Q.E.L.H.K.L.Q.Y.P.R.T.N.T.G.S.G.T.P.[am]}$PEPTIDE1,PEPTIDE1,1:R3-7:R3$$$V2.0) is lower in Hypocalcemic activity: 8000 IU mg-1 for the first, 5500 IU mg-1 for the second.

Compared with CC(C)C[C@H](NC(=O)[C@H](CCCCN)NC(=O)CNC(=O)[C@H](CC(C)C)NC(=O)[C@@H](NC(=O)[C@@H]1CSSC[C@H](N)C(=O)N[C@@H](CO)C(=O)N[C@@H](CC(N)=O)C(=O)N[C@@H](CC(C)C)C(=O)N[C@@H](CO)C(=O)N[C@@H]([C@@H](C)O)C(=O)N1)C(C)C)C(=O)N[C@@H](CO)C(=O)N[C@@H](CCC(N)=O)C(=O)N[C@@H](CCC(=O)O)C(=O)N[C@@H](CC(C)C)C(=O)N[C@@H](Cc1c[nH]cn1)C(=O)N[C@@H](CCCCN)C(=O)N[C@@H](CC(C)C)C(=O)N[C@@H](CCC(N)=O)C(=O)N[C@H](C(=O)N[C@@H](Cc1ccc(O)cc1)C(=O)N1CCC[C@H]1C(=O)N[C@@H](CCCNC(=N)N)C(=O)N[C@H](C(=O)N[C@@H](CC(N)=O)C(=O)N[C@H](C(=O)NCC(=O)N[C@@H](CO)C(=O)NCC(=O)N[C@H](C(=O)N1CCC[C@H]1C(N)=O)[C@@H](C)O)[C@@H](C)O)[C@@H](C)O)[C@@H](C)O [CALCITONIN SALMON], CC(C)C[C@H](NC(=O)[C@H](CCCCN)NC(=O)CNC(=O)[C@H](CC(C)C)NC(=O)[C@@H](NC(=O)[C@@H]1CSSC[C@H](N)C(=O)N[C@@H](CO)C(=O)N[C@@H](CC(N)=O)C(=O)N[C@@H](CC(C)C)C(=O)N[C@@H](CO)C(=O)N[C@@H]([C@@H](C)O)C(=O)N1)C(C)C)C(=O)N[C@@H](CO)C(=O)N[C@@H](CCC(N)=O)C(=O)N[C@@H](CCC(=O)O)C(=O)N[C@@H](CC(C)C)C(=O)N[C@@H](Cc1c[nH]cn1)C(=O)N[C@@H](CCCCN)C(=O)N[C@@H](CC(C)C)C(=O)N[C@H](C(=O)N[C@@H](Cc1ccc(O)cc1)C(=O)N1CCC[C@H]1C(=O)N[C@@H](CCCN=C(N)N)C(=O)N[C@H](C(=O)N[C@@H](CC(N)=O)C(=O)N[C@H](C(=O)NCC(=O)N[C@@H](CO)C(=O)NCC(=O)N[C@H](C(=O)N1CCC[C@H]1C(N)=O)[C@@H](C)O)[C@@H](C)O)[C@@H](C)O)[C@@H](C)O (HELM PEPTIDE1{C.S.N.L.S.T.C.V.L.G.K.L.S.Q.E.L.H.K.L.T.Y.P.R.T.N.T.G.S.G.T.P.[am]}$PEPTIDE1,PEPTIDE1,1:R3-7:R3$$$V2.0) is lower in Hypocalcemic activity: 4500 IU mg-1 for the first, 4000 IU mg-1 for the second.
